This passage reports reduces blood glucose and pEC50 results from patent US20130345243A1, “1H-PYROLLO[3,2-D]PYRIMIDINEDIONE DERIVATIVES” (GLAXOSMITHKLINE LLC, priority 2011, published 2013).

One assay has as its system ob/ob and db/db mice. As to conditions: 8 day administration; cited from earlier work.
Another assay relates to Human recombinant AMPK. Put plainly: AMPK Enzymatic Assay (Z'Lyte FRET). The assay is classed as biochemical. To be noted: ATP 100 μM, peptide 2 μM, means of at least 2 independent experiments. On the procedure: Human recombinant AMPK (Invitrogen #PV4673 & #PV4675) is used in a FRET assay format (Z'Lyte—Invitrogen). Assay conditions are as follow: ATP 100 μM, peptide (Invitrogen # PR8650) 2 μM, 1% final DMSO in Z'Lyte kinase buffer. Reaction is initiated by addition of 0.2-0.8 ng of AMPK and incubated for 1-hour @ 30° C. A further 1-hour incubation @ 30° C. with the development reagent (Invitrogen # PR5194) is performed. FRET signal is then measured and converted to “% peptide phosphorylation” according to Z'Lyte given calculation procedure. Evaluation of compounds is carried out using concentration-response curves. Final data are expressed in “% activation” calculating the ratio of “% peptide phosphorylation” between compound-condition and basal-condition. Alternatively pEC200 (−Log(compound concentration leading to a 2-fold AMPK activity increase)) is produced through fitting of the concentration-response curves. All data are means of at least 2 independent experiments.

In general, pEC50 refers to −log10 of the EC50, conventionally taken in molar units.

In the case of `NC(=O)c1ncn([C@@H]2O[C@H](CO)[C@@H](O)[C@H]2O)c1N` [AICAR], the reduces blood glucose in the assay on ob/ob and db/db mice is listed as 35%.
On to `Cl.Nc1nc(-c2ccc(-n3c(Cl)cc4[nH]c(=O)n(-c5cccc(C(=O)O)c5)c(=O)c43)cc2)cs1` [Example 11, 3-(5-(4-(2-Aminothiazol-4-yl)phenyl)-6-chloro-2,4-dioxo-1H-pyrrolo[3,2-d]pyrimidin-3(2H,4H,5H)-yl)benzoic acid hydrochloride], for which the pEC50 in the assay on Human recombinant AMPK is recorded as 6.2.
`Nc1nc(-c2ccc(-n3c(Cl)cc4[nH]c(=O)n(-c5ccccc5F)c(=O)c43)cc2)cs1` [Example 12, 5-[4-(2-Amino-1,3-thiazol-4-yl)phenyl]-6-chloro-3-(2-fluorophenyl)-1H-pyrrolo[3,2-d]pyrimidine-2,4(3H,5H)-dione]: the pEC50 in the assay on Human recombinant AMPK stood at 6.1.
